Reference: the supplement of paper PMC6045584
± gives the standard deviation of the averaged measurements.

Tests used:
OLAPARIB = compound: O=C(c1cc(Cc2n[nH]c(=O)c3ccccc23)ccc1F)N1CCN(C(=O)C2CC2)CC1 [OLAPARIB]; experiment: surviving fraction relative to DMSO-only wells; higher = less growth inhibition; conditions: exposure time: 5 days
Summary of the method: (§1)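 Tumour cell lines were grown to log phase and seeded at 250–500 cells per well in 384-well plates. They were exposed continuously to inhibitors at 0.5, 1, 5, 10, 50, 100, 500 and 1000 nM for five days, beginning 24 hours after seeding. Surviving fraction is CellTiter-Glo luminescence normalised to the median of DMSO-only wells.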

SORAFENIB = compound: CNC(=O)c1cc(Oc2ccc(NC(=O)Nc3ccc(Cl)c(C(F)(F)F)c3)cc2)ccn1 [SORAFENIB]; experiment: as above; conditions: exposure time: 5 days
Summary of the method: as §1

| Test System | surviving fraction (OLAPARIB; 0.5 nM) | surviving fraction (OLAPARIB; 1 nM) | surviving fraction (OLAPARIB; 5 nM) | surviving fraction (OLAPARIB; 10 nM) | surviving fraction (OLAPARIB; 50 nM) | surviving fraction (OLAPARIB; 100 nM) | surviving fraction (OLAPARIB; 500 nM) | surviving fraction (OLAPARIB; 1000 nM) | surviving fraction (SORAFENIB; 1 nM) | surviving fraction (SORAFENIB; 5 nM) | surviving fraction (SORAFENIB; 10 nM) | surviving fraction (SORAFENIB; 50 nM) | surviving fraction (SORAFENIB; 100 nM) | surviving fraction (SORAFENIB; 0.5 nM) | surviving fraction (SORAFENIB; 500 nM) | surviving fraction (SORAFENIB; 1000 nM) |
| --- | --- | --- | --- | --- | --- | --- | --- | --- | --- | --- | --- | --- | --- | --- | --- | --- |
| BT20 BREAST | 0.996 ± 0.12 | 1.14 ± 0.055 | 0.942 ± 0.14 | 1.04 ± 0.096 | 0.757 ± 0.1 | 0.732 ± 0.13 | 0.795 ± 0.21 | 0.773 ± 0.085 | 1.04 ± 0.26 | 1.07 ± 0.23 | 1.07 ± 0.23 | 1.01 ± 0.33 | 0.951 ± 0.3 | – | – | – |
| LNCAP PROSTATE | 1.09 ± 0.1 | 1.03 ± 0.16 | 1 ± 0.096 | 1.032 ± 0.0049 | 1.12 ± 0.086 | 1.02 ± 0.29 | 0.97 ± 0.061 | 0.82 ± 0.13 | – | 1 ± 0.082 | 1.06 ± 0.08 | 0.902 ± 0.23 | – | 1.01 ± 0.084 | 0.887 ± 0.12 | 0.853 ± 0.17 |
| HCC202 BREAST | 0.896 ± 0.024 | 0.973 ± 0.12 | 0.987 ± 0.19 | 0.92 ± 0.2 | 0.713 ± 0.2 | 0.68 ± 0.026 | 0.737 ± 0.075 | 0.649 ± 0.1 | – | 1.11 ± 0.18 | 1.02 ± 0.031 | 0.987 ± 0.055 | – | 1.23 ± 0.35 | 0.897 ± 0.13 | 0.685 ± 0.15 |
| SCC90 HEADNECK | 1.07 ± 0.066 | 1.04 ± 0.093 | 1.06 ± 0.062 | 1.1 ± 0.063 | 0.994 ± 0.037 | 0.942 ± 0.14 | 0.968 ± 0.087 | 0.931 ± 0.091 | 1.23 ± 0.13 | 1.37 ± 0.12 | 1.3 ± 0.097 | – | 0.797 ± 0.076 | 1.16 ± 0.083 | 1.01 ± 0.083 | 1.12 ± 0.069 |
| NY BONE | 1.01 ± 0.016 | 1.03 ± 0.013 | 1.05 ± 0.039 | 1.05 ± 0.061 | 1.09 ± 0.031 | 1.06 ± 0.055 | 0.95 ± 0.022 | 0.849 ± 0.04 | 0.975 ± 0.033 | 1.04 ± 0.035 | 1.01 ± 0.027 | 1.08 ± 0.036 | 1.07 ± 0.044 | 1.01 ± 0.019 | 1.02 ± 0.013 | 1.034 ± 0.0083 |
| OSHN BONE | 1.06 ± 0.021 | 1.05 ± 0.023 | 1.07 ± 0.032 | 1.04 ± 0.023 | 1.003 ± 0.01 | 0.984 ± 0.011 | 0.984 ± 0.017 | 0.917 ± 0.013 | 1.047 ± 0.0099 | 1.07 ± 0.018 | 1.05 ± 0.015 | 1.09 ± 0.037 | 1.06 ± 0.014 | 1.06 ± 0.024 | 1.08 ± 0.025 | 1.05 ± 0.013 |
| SCC47 HEADNECK | 1.1 ± 0.09 | 0.994 ± 0.062 | 1.14 ± 0.042 | 1.07 ± 0.086 | 1.08 ± 0.098 | 0.989 ± 0.079 | 0.977 ± 0.043 | 1.03 ± 0.11 | 0.998 ± 0.071 | 1.08 ± 0.029 | 0.974 ± 0.067 | 1 ± 0.053 | 1.01 ± 0.068 | 1.04 ± 0.067 | 0.907 ± 0.065 | 0.825 ± 0.028 |
| CAL72 BONE | 1.05 ± 0.017 | 1.098 ± 0.0086 | 1.0433 ± 0.00058 | 1.06 ± 0.033 | 0.98 ± 0.029 | 0.958 ± 0.027 | 0.949 ± 0.021 | 0.901 ± 0.029 | – | 1.09 ± 0.026 | 1.05 ± 0.048 | 1.13 ± 0.039 | 1.121 ± 0.0063 | 1.06 ± 0.031 | 1.09 ± 0.041 | 1.08 ± 0.042 |
| 93VU HEADNECK | 1.02 ± 0.1 | 1.01 ± 0.074 | 1.12 ± 0.033 | 1.07 ± 0.09 | 0.955 ± 0.072 | 0.955 ± 0.03 | 0.92 ± 0.049 | 0.837 ± 0.096 | 0.987 ± 0.091 | 1.12 ± 0.051 | 1.19 ± 0.11 | 1.22 ± 0.1 | 1.17 ± 0.07 | 0.961 ± 0.081 | – | – |
| HCC78 LUNG | 0.948 ± 0.06 | 0.986 ± 0.2 | 1.03 ± 0.32 | 1.22 ± 0.46 | 1.12 ± 0.1 | 1.05 ± 0.12 | 0.987 ± 0.19 | 0.859 ± 0.068 | 0.826 ± 0.023 | – | 0.877 ± 0.085 | 1.02 ± 0.053 | – | 0.864 ± 0.17 | 0.509 ± 0.068 | 0.435 ± 0.098 |
| SUM159 BREAST | 1.12 ± 0.075 | 1.05 ± 0.066 | 1.084 ± 0.01 | 1.06 ± 0.016 | 1.05 ± 0.051 | 0.948 ± 0.24 | 1.02 ± 0.079 | 0.993 ± 0.091 | 0.956 ± 0.18 | – | 0.936 ± 0.18 | 0.997 ± 0.15 | – | 0.909 ± 0.23 | 0.909 ± 0.28 | 0.071 ± 0.043 |
| U2OS BONE | 1.08 ± 0.045 | 1.05 ± 0.069 | 1.06 ± 0.044 | 1.07 ± 0.04 | 1.05 ± 0.055 | 1.01 ± 0.046 | 0.945 ± 0.018 | 0.877 ± 0.032 | 1.03 ± 0.027 | 1.06 ± 0.05 | 1.05 ± 0.029 | 1.08 ± 0.035 | – | 1.01 ± 0.019 | 1.08 ± 0.016 | 1 ± 0.067 |
| MDAMB231 BREAST | 0.961 ± 0.02 | 0.98 ± 0.031 | 0.974 ± 0.0099 | 0.97 ± 0.029 | 0.929 ± 0.017 | 0.957 ± 0.013 | 0.899 ± 0.015 | 0.807 ± 0.016 | 0.995 ± 0.014 | 0.924 ± 0.036 | 0.905 ± 0.014 | 0.887 ± 0.014 | 0.936 ± 0.05 | 0.99 ± 0.025 | – | 0.929 ± 0.016 |
| CME SYNOVIAL | 1.29 ± 0.3 | 1.27 ± 0.059 | 1.23 ± 0.11 | 1.16 ± 0.22 | 0.737 ± 0.14 | 0.616 ± 0.051 | 0.386 ± 0.053 | 0.303 ± 0.021 | 1.2 ± 0.07 | 1.28 ± 0.072 | 1.38 ± 0.075 | 1.28 ± 0.058 | 1.4 ± 0.12 | 1.23 ± 0.11 | 1.27 ± 0.073 | 1.15 ± 0.025 |
| T47D BREAST | 1.01 ± 0.04 | 1 ± 0.052 | 0.986 ± 0.011 | 0.982 ± 0.027 | 0.997 ± 0.061 | 0.9606 ± 0.0086 | 0.971 ± 0.05 | 0.864 ± 0.023 | 1.02 ± 0.028 | 1.07 ± 0.053 | 1.02 ± 0.046 | 1.14 ± 0.029 | 1.13 ± 0.018 | 1.083 ± 0.01 | 1.149 ± 0.0045 | 1.12 ± 0.039 |
| MDAMB436 BREAST | 0.888 ± 0.1 | 0.878 ± 0.08 | 0.806 ± 0.056 | 0.795 ± 0.039 | 0.651 ± 0.011 | 0.606 ± 0.022 | 0.537 ± 0.022 | 0.469 ± 0.031 | 0.992 ± 0.046 | 0.977 ± 0.057 | 0.949 ± 0.085 | – | 0.961 ± 0.043 | 0.966 ± 0.04 | – | 0.855 ± 0.019 |
| DU4475 BREAST | 1.16 ± 0.21 | 1.36 ± 0.5 | 1.228 ± 0.009 | 1.22 ± 0.31 | 0.954 ± 0.28 | 0.739 ± 0.23 | 0.689 ± 0.21 | 0.517 ± 0.15 | 1.05 ± 0.2 | 0.927 ± 0.29 | 0.999 ± 0.18 | 0.819 ± 0.25 | 0.939 ± 0.46 | 1.07 ± 0.35 | 0.906 ± 0.31 | 0.769 ± 0.32 |
| HOS BONE | 1.03 ± 0.022 | 1.03 ± 0.026 | 1.06 ± 0.0091 | 1.012 ± 0.0081 | 1.02 ± 0.028 | 1.01 ± 0.023 | 1.01 ± 0.026 | 0.953 ± 0.041 | 1.015 ± 0.0025 | 1.025 ± 0.0095 | 1.03 ± 0.018 | 1.09 ± 0.014 | – | 1.03 ± 0.043 | – | – |
| OS25HAL BONE | 1.01 ± 0.015 | 1.01 ± 0.033 | 1.04 ± 0.015 | 1.02 ± 0.025 | 1.05 ± 0.019 | 1.01 ± 0.017 | 1.005 ± 0.0085 | 0.99 ± 0.012 | 0.984 ± 0.0092 | 1.03 ± 0.035 | – | 1.06 ± 0.018 | 1.01 ± 0.049 | 0.99 ± 0.023 | 0.855 ± 0.077 | 0.645 ± 0.056 |
